pIC50: −log10 of the molar value.
Target: one or more of HDAC-4, HDAC-5, HDAC-6, HDAC-7, HDAC-8, HDAC-9, HDAC-10 and HDAC-11
Test: Inhibition of histone deacetylase enzymatic activity (summary statement over isoforms)
Type: biochemical
Details: Table 3, selected examples; HDAC isoform not given
Procedure, shortened: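 Activity was measured as deacetylation of the fluorogenic substrate Boc-Lys(trifluoroacetyl)-AMC over 20-30 min at 37 °C, after a 5 min room-temperature preincubation of enzyme with compound. Trypsin (1 mg/mL) with a reference HDAC inhibitor ended the reaction.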

O=C(NO)C(c1ccccc1)n1ccc(-c2ccccc2)c1 (stereo not shown) [Compound 5-2, N-hydroxy-2-phenyl-2-(3-phenyl-1H-pyrrol-1-yl)acetamide]
pIC50: > 6.00

O=C(NO)C(c1ccccc1)c1nnc(-c2ccccc2-c2ccccc2)s1 (stereo not shown) [Compound 5-39, 2-(5-(biphenyl-2-yl)-1,3,4-thiadiazol-2-yl)-N-hydroxy-2-phenylacetamide]
pIC50: 4.82 to 6.00

O=C(CCC1CCCCC1)Nc1cccc(C(C(=O)NO)c2ccccc2)c1 (stereo not shown) [Compound 2-71, 3-cyclohexyl-N-(3-(2-(hydroxyamino)-2-oxo-1-phenylethyl)phenyl)propanamide]
pIC50: > 6.00

O=C(NO)C(c1ccccc1)c1cccc(N2CCN(Cc3ccncc3)CC2)c1 (stereo not shown) [Compound 3-12, N-hydroxy-2-phenyl-2-(3-(4-(pyridin-4-ylmethyl)piperazin-1-yl)phenyl)acetamide]
pIC50: > 6.00

O=C(NO)C(c1ccccc1)c1nc2ccc(-c3cccs3)cc2[nH]1 (stereo not shown) [Compound 1-20, N-hydroxy-2-phenyl-2-(6-(thiophen-2-yl)-1H-benzo[d]imidazol-2-yl)acetamide]
pIC50: > 6.00

O=C(NO)C(c1ccccc1)N1CCN(C(=O)Nc2cccnc2)CC1 (stereo not shown) [Compound 2-34, 4-(2-(hydroxyamino)-2-oxo-1-phenylethyl)-N-(pyridin-3-yl)piperazine-1-carboxamide]
pIC50: 4.82 to 6.00

O=C(NO)C(c1ccccc1)c1cccc(NCc2ccncc2)c1 (stereo not shown) [Compound 2-81, N-hydroxy-2-phenyl-2-(3-(pyridin-4-ylmethylamino)phenyl)acetamide]
pIC50: > 6.00

C=CCCOc1cccc(C(C(=O)NO)c2ccccc2)c1 (stereo not shown) [Compound 3-26, 2-(3-(but-3-enyloxy)phenyl)-N-hydroxy-2-phenylacetamide]
pIC50: 4.82 to 6.00

O=C(Nc1ccc(C(C(=O)NO)c2ccccc2)cc1)c1ccc2c(c1)OCO2 (stereo not shown) [Compound 2-75, N-(4-(2-(hydroxyamino)-2-oxo-1-phenylethyl)phenyl)benzo[d][1,3]dioxole-5-carboxamide]
pIC50: > 6.00

CS(=O)(=O)c1ccc(-c2cccc(C(C(=O)NO)c3ccccc3)c2)cc1 (stereo not shown) [Compound 2-110, N-hydroxy-2-(4′-(methylsulfonyl)biphenyl-3-yl)-2-phenylacetamide]
pIC50: > 6.00

CC(=O)Nc1ccc(C(C(=O)NO)c2ccccc2)cc1 (stereo not shown) [Compound 3-13, 2-(4-acetamidophenyl)-N-hydroxy-2-phenylacetamide]
pIC50: > 6.00

CN(C)c1ccc(-c2cccc(C(C(=O)NO)c3ccccc3)c2)cc1 (stereo not shown) [Compound 2-105, 2-(4′-(dimethylamino)biphenyl-3-yl)-N-hydroxy-2-phenylacetamide]
pIC50: > 6.00

O=C(NO)C1(c2ccc(F)cc2)CCCCC1 [Compound 5-119, 1-(4-fluorophenyl)-N-hydroxycyclohexanecarboxamide]
pIC50: 4.82 to 6.00

O=C(NO)C(c1ccccc1)c1cccc(OC2CCCC2)c1 (stereo not shown) [Compound 3-29, 2-(3-(cyclopentyloxy)phenyl)-N-hydroxy-2-phenylacetamide]
pIC50: 4.82 to 6.00

CCCCOc1ccc(C#Cc2ccc(C(C(=O)NO)c3ccccc3)cc2)cc1 (stereo not shown) [Compound 2-99, 2-(4-((4-butoxyphenyl)ethynyl)phenyl)-N-hydroxy-2-phenylacetamide]
pIC50: > 6.00

Cc1noc(C)c1COc1ccc(C(C(=O)NO)c2ccccc2)cc1 (stereo not shown) [Compound 3-51, 2-(4-((3,5-dimethylisoxazol-4-yl)methoxy)phenyl)-N-hydroxy-2-phenylacetamide]
pIC50: > 6.00

O=C(Cc1ccccc1)Nc1ccc(C(C(=O)NO)c2ccccc2)cc1 (stereo not shown) [Compound 2-59, N-hydroxy-2-phenyl-2-(4-(2-phenylacetamido)phenyl)acetamide]
pIC50: > 6.00

O=C(NO)C(c1ccccc1)N1CCN(C(=O)c2ccco2)CC1 (stereo not shown) [Compound 2-27, 2-(4-(furan-2-carbonyl)piperazin-1-yl)-N-hydroxy-2-phenylacetamide]
pIC50: 4.82 to 6.00

O=C(NO)C(c1ccccc1)c1ccc(N2CCN(Cc3ccc4c(c3)OCO4)CC2)cc1 (stereo not shown) [Compound 5-76, 2-(4-(4-(benzo[d][1,3]dioxol-5-ylmethyl)piperazin-1-yl)phenyl)-N-hydroxy-2-phenylacetamide]
pIC50: > 6.00

Reference: patent US9096565B2, “Inhibitors of histone deacetylase” (MethylGene Inc., priority 2007, dated 2015)
